From PMC5554537 (Frontiers in Pharmacology, 2017)
Read-outs that look alike come from different tables or passages of the source.

How the values were obtained:
[1] = Mouse toxicity: MTD, survival and body weight loss after single i.p. doses; type: in vivo, NIH-III mice; conditions: mouse, in vivo, ip, NIH-III mice; for MTD at 14 days: both sexes, single i.p. dose
Text: (§1) Mouse toxicity SN30000 and metabolites M14 and M18: survival and body weight loss following single i.p. doses to NIH-III mice.
(§2) Cmpd Dose Body weight nadir Body weight nadir
(§3) (µmol/kg) Survivala Survivala
(§4) Day Weight loss (%)b Day Weight loss (%)b […]
(§5) a Survival reported as a fraction of total nu mber of animal treated at a giv en dose, with an observation time of 14 days. Deaths were predominantly due to humane ter mination because of persistent clinical signs or body weight loss > 15% of pretreatment values. b Body weig ht loss at nadir, relative to pre-treatment values. Values are mean and errors are […]
(§6) c Data from Gu et al., 2014 d Mouse died <24 hr after dosing.

NIH-III mice [2] = test: as above; type: in vivo; conditions: for Survival: 14 days
Text: as §1, §2, §3, §4, §5, §6

CHO/POR cells = test: Redox cycling: non-respiratory O2 consumption and H2O2 generation; type: cell-based; conditions: rotenone-inhibited aerobic CHO/POR cells, cumulative addition
Protocol: The Chinese hamster ovary cell line 51D1.3 (herein called CHO) and a stable transfectant expressing a soluble form of human P450 oxidoreductase (51D1.3/sPOR, herein called CHO/POR) ([Gu et al., 2009]), were grown in spinner flasks in αMEM plus 5% fetal bovine serum. Late log phase cultures were harvested by centrifugation, resuspended at 5 × 10^5 cells/mL in phenol red-free high-glucose DMEM (Invitrogen) supplemented with 4 mM Glutamax-1, 1 mM sodium pyruvate and 5% FBS. Stirred cell suspensions (2 mL) were transferred to an OXYBOROS O2K oxygraph for simultaneous polarographic measurement of non-respiratory O2 consumption and fluorimetric measurement of H2O2 generation as previously ([Hunter et al., 2012]). Bovine liver superoxide dismutase (10 U), horseradish peroxidase (10 U), Amplex UltraRed (50 nmol) and rotenone (1 nmol), all from Molecular Probes Invitrogen (Eugene, OR), were injected and cumulative drug additions (from saline stock solutions) were made every ∼5 min once endogenous rates had stabilized. Signals were recorded every 2 s, and flux derivatives were estimated ∼2 min after each addition using a Savitzky–Golay smoothing filter (40 data point window) in DATLAB version 4.3.
Supplementary Figure 4. Time-dependent changes in oxy gen consu mption and H2O2 formation rates induced by SN30000 in rotenone-inhibited CHO/POR cell suspensions, monitored with an OXYBOROS O2K oxygraph. Conditions of the experiment were identical to Fig. 5 except that SN30000 was added as a single bolus to separate cell suspension, rather than by cu mulative addition. A: Representative traces for oxygen consu mption and H2O2 formation rates for a single culture when SN30000 was added to a final concentration of 600 µM, at 4 min. Peak rates were established within 2 min, followed by a decline to a new steady state at approximately 1/3rd of the maximu m rate. Cell viability was > 97% by try pan […]
killing. […]

SiHa cells = test: Oxygen consumption rate, Seahorse XFe96 analyser; type: cell-based, human; conditions: 200 µM, mitochondrial stress test
Protocol: (OCR) of the human cervical carcinoma cell line SiHa and a previously described (Guise et al., 2007) POR-overexpressing transfectant SiHa/POR, determined using a Seahorse XFe96 Analyser (Agilent). Cells were passaged in αMEM plus 5% FCS, with 1 µM puromycin to maintain POR expression in the SiHa/POR cell line. Cells were ty pically seeded at 4×10^4 cells/well in Seahorse 96 well plates (without puromycin) and ~ 18 hr later the medium was changed to Seahorse medium with 10 mM glucose and 2 mM glutamine (SMGG) adjusted to pH 7.35 (150 µl/well). Plates were degassed to remove CO2, and inhibitors were added serially using the Seahorse injectors (25 µl/injection) with rotenone (final concentration 0.5 µM) typically added at the start of the 30 min equilibration in the flux analyser. OCR was monitored for three 3 min periods following each drug addition. […]
injection 1 and at each subsequent injection to maintain concentrations at 200 µM continuously during the test. The control received equivalent injections of SMGG without drugs. In all cases (including controls), injection 2 added oligomycin to give 0.5 µM, injection 3 added carbonyl cyanide […] (FCCP) to 0.5 µM, and injection 4 added rotenone and antimy cin to 1 µM each. V alues are means and errors are standard deviations, for 6 replicate cultures. […]
suppressed by M14, both in the presence (injection 1) and absence (injection 4) of respiratory […]
presence or absence of 0.5 µM rotenone when SN30000 is added cumulatively to give the indicated concentrations. Values are means and SEM for 5 replicate cultures. The fall in OCR after transient stimulation at each addition of SN30000 is consistent with the pattern for CHO/POR cells in Supplementary Fig. 4A.
C: Concentration dependence of increases in OCR by SiHa/POR cells, measured at the first […]
effects noted above. Left panel: SN30000. Right panel: TPZ. Values are means and errors are […]

NIH-III mice [3] = system: NIH-III mice
Text: SUPPLEMTENTAL TABLE 7. Mouse toxicity of SN30000 and M14: Histopathology […]
Male and female NIH-III mice aged 6-10 weeks were given a single i.p. dose of SN30000 (186, 248 […]
untreated control for each sex, fixed in 10% neutral buffered formalin at room temperature for 24-48 hr, transferred to 70% ethanol and subsequently paraffin embedded, sectioned and H&E stained for light microscopy . The following tissues/organs were examined: skin, testes, eyeball, brain, liver, lung, stomach, duodenum, heart, spleen, pancreas, colon, femur and joint (incl marrow), skeletal muscle (psoas) and kidney. Results are reported only for positive findings.

Urinary excretion = type: in vivo, NIH-III mice; conditions: for Urinary excretion, % of administered dose: 24 h
Protocol: Mice (20–25 g body weight) were dosed i.p. or by slow bolus (10–20 s) i.v. injection via a lateral tail vein, with co-administration of ^3H-mannitol (0.025 μmol/kg; 67 MBq/g) in some studies as a marker of renal function. For evaluation of acute toxicity, mice were observed continuously for 3 h after dosing, and their activity rated on a lethargy score from 0 representing no change in activity to 5 representing animals that were moribund and required culling. For MTD studies, the animals were checked daily for clinical signs of toxicity and body weight change for 2 weeks. In some studies rectal temperature changes after dosing were measured using a BAT-12 digital microprobe thermometer (Physitemp Instruments, Clifton, NJ, United States) at the times specified in the figures. Blood samples were collected from mice at various times by cardiac puncture, seconds after cervical dislocation, into ice-cold tubes containing K2EDTA. These were placed on ice immediately after collection and centrifuged (3,000 g, 3 min) within 10 min to harvest plasma. Plasma and tissues were rapidly frozen in liquid nitrogen before storage at -80°C for subsequent bioanalysis. Urine samples were collected from mice housed individually in metabolic cages (Minor Metabowl, Jencons, United Kingdom; one animal per cage) with continuous access to food and water.

[4] = Rectal temperature and MTD in rats; type: in vivo; conditions: rat, in vivo, iv; Wistar rats, single i.v. dose
Wistar rats = test: Rectal temperature and MTD in rats; type: in vivo; conditions: single i.v. dose of 90 mg/kg, preliminary

[O-][n+]1nc(CCCN2CCOCC2)nc2cc3c(cc21)CCC3 [M14]
MTD at 14 days [1]: 562 µmol/kg | MTD at 14 days ([1]; equivalent to 562 μmol/kg): 177 mg/kg | MTD at 2 weeks ([1]; as stated for the temperature study (Figure 4)): 135 mg/kg | Body weight nadir, Day (NIH-III mice [2]; female, 562 µmol/kg i.p.): 3 | Body weight nadir, Weight loss (NIH-III mice [2]; female, 562 µmol/kg i.p.): 2.6 ± 0.4% | Survival (NIH-III mice [2]; female, 562 µmol/kg i.p.): 3/3 | Survival (NIH-III mice [2]; female, 750 µmol/kg i.p.): 0/1 | Body weight nadir, Day (NIH-III mice [2]; male, 562 µmol/kg i.p.): 1 | Body weight nadir, Weight loss (NIH-III mice [2]; male, 562 µmol/kg i.p.): 0.7 ± 0.5% | Survival (NIH-III mice [2]; male, 562 µmol/kg i.p.): 3/3 | Survival (NIH-III mice [2]; male, 750 µmol/kg i.p.): 0/2 | Body weight nadir, Day (NIH-III mice [2]; male, 1000 µmol/kg i.p.): 1 | Body weight nadir, Weight loss (NIH-III mice [2]; male, 1000 µmol/kg i.p.): 2.0% | Survival (NIH-III mice [2]; male, 1000 µmol/kg i.p.): 1/1 | Non-respiratory O2 consumption and H2O2 generation (redox cycling) (CHO/POR cells): much lower rates than for SN30000 | Effect on oxygen consumption rate (OCR) (SiHa cells): suppressed

O=C(O)CCc1nc2cc3c(cc2[n+]([O-])n1)CCC3 [M18]
Body weight nadir, Weight loss (NIH-III mice [2]; female, 562 µmol/kg i.p.): No decrease in body weight | Survival (NIH-III mice [2]; female, 562 µmol/kg i.p.): 3/3

[O-][n+]1nc(CCCN2CCOCC2)[n+]([O-])c2cc3c(cc21)CCC3 [SN30000, 3-(3-Morpholinopropyl)-7,8-dihydro-6H-indeno[5,6-e][1,2,4]triazine 1,4-dioxide]
MTD at 14 days [1]: 562 µmol/kg | MTD at 14 days ([1]; equivalent to 562 μmol/kg): 186 mg/kg | Histopathology findings, Kidney (NIH-III mice [3]; 186 mg/kg i.p., female, 3 examined): Basophilic cortical tubules (2); karyomegaly in tubular epithelium (3); tubular epithelial necrosis (3) | Histopathology findings, Kidney (NIH-III mice [3]; 248 mg/kg i.p., female, 2 examined): Basophilic cortical tubules (2); karyomegaly in tubular epithelium (2); tubular epithelial necrosis (2) | Histopathology findings, Testes (NIH-III mice [3]; 248 mg/kg i.p., male, 1 examined): Degeneration of germinal epithelium (1) | Histopathology findings, Kidney (NIH-III mice [3]; 248 mg/kg i.p., male, 2 examined): Basophilic cortical tubules (1); karyomegaly in tubular epithelium (1); tubular epithelial necrosis (1) | Histopathology findings, Kidney (NIH-III mice [3]; 331 mg/kg i.p., male, 1 examined): Basophilic cortical tubules (1); karyomegaly in tubular epithelium (1); tubular epithelial necrosis (1) | Urinary excretion, % of administered dose (Urinary excretion; 18.6 mg/kg i.p.): 3.38 ± 0.03% | Urinary excretion, % of administered dose (Urinary excretion; 186 mg/kg i.p.): 5.64 ± 0.02% | Urinary excretion, % of injected dose (Urinary excretion; by 24 h, dose not stated): ~5% | Non-respiratory O2 consumption and H2O2 generation (redox cycling) (CHO/POR cells): strongly stimulated O2 consumption and H2O2 formation | Effect on oxygen consumption rate (OCR) (SiHa cells): increased | MTD [4]: 90 mg/kg | Decrease in rectal temperature (Wistar rats): ~2.5 °C
